Source: patent US9057725B2, “Composition for diagnosing, treating, and preventing liver disease” (SNU R&DB Foundation, priority 2010, dated 2015)
Entries after “also recorded” stand apart in the source; their conditions may differ.

Assays:
human TM4SF5 promoter = test: Luciferase reporter gene assay with TM4SF5 promoter in Huh7, HepG2 and SNU16mAd cells; assay type: cell-based
Method: Particularly, Huh7 and HepG2 (liver cancer cell lines), and SNU16mAd (stomach cancer cell line) were transfected with pBabe-galactosidase (Choi et al., 2009, Blood 113:1845-1855) containing pGL3-human TM4SF5 promoter prepared by inserting genomic fragment of TM4SF5 upstream promoter located approximately −3 kb ahead of TM4SF5 gene in pGL3 luciferase vector (Promega), followed by harvesting 24 hours later. Then, luciferase activity of the reporter gene was measured. Infection efficiency was confirmed by measuring beta-galactosidase activity, followed by quantification after normalization. […] Unlike pGL3-TM4SF5 that was the construct harboring TM4SF5 promoter region whose transcriptional activity could be confirmed, pGL3-basic was the construct without the promoter, meaning transcription would not be activated, which was thereby used as the control (FIG. 2).

AML12 cells = test: TM4SF5 expression and EMT induced by TGFβ in AML12 cells; assay type: cell-based, mouse
Method: (§1) AML12 cells (ATCC, USA), the normal mouse hepatocytes, and Chang cells (ATCC, USA), the normal human hepatocytes, cultured in DMEM supplemented with 10% FBS were washed with serum-free DMEM, which were maintained as serum-free status for 4 hours. After serum starvation, the cells were treated with TGFβ (2.5 ng/ml), followed by further culture for 24 hours. At last, cell extracts were prepared.
TM4SF5 protein expression was increased in those extracts, confirmed by immunoblotting and immunofluorescence assay using antibodies against pSmad3, pSmad2 (Cell Signaling Technology, Danvers, Mass.), vimentin (Sigma-Aldrich), E-adherin (Santa Cruz Biotechnology, Santa Cruz, Calif.), and TM4SF5 (Sin-Ae Lee et al., J. Clin. Invest. 2008 April; 118(4):1354-66). The nucleotide sequence of TM4SF5 antibody was confirmed by using pGEX-5X2 vector (Amersham) comprising c-terminal of TM4SF5 (the region from the 229th nucleotide residue to the 594th nucleotide residue, digested with EcoR1). To obtain recombinant protein induced by IPTG from DH5a bacteria, PBS comprising 0.3% SDS and protease inhibitor was used. After protein extraction, antigen was extracted from electrophoresed SDS gel, followed by immunizing mice with that. After immune response was induced three times in total, serum was obtained from the mice. Immunoreactivity of the serum with recombinant protein and animal cell extract was investigated.
As a result, as shown in FIG. 3 and FIG. 5, when AML12 cells were treated with TGFβ, TM4SF5 expression was increased. In addition, EMT (epithelial-mesenchymal transition) was induced by the increases of α-SMA and vimentin and the decrease of E-cadherin. It was also confirmed by immunoblotting that the expression of E-cadherin, which is important for cell-cell contact, was reduced, but the expression of vimentin, the mesenchymal cell marker, was increased. In the meantime, according to immunofluorescence assay, the cells were placed on cover glass coated with fibronectin (10 μg/ml) to perform immunofluorescence staining, followed by treating with TGFβ. Upon completion of immunofluorescence staining with vimentin antibody, the cover glass was observed under fluorescence microscope. As a result, vimentin expression was increased, compared with the control treated with vehicle (PBS, phosphate saline buffer) only without TGFβ, and EMT was confirmed by dispersed cell pattern (FIG. 3).

Chang cells [1] = test: TM4SF5 expression and EMT induced by TGFβ in Chang cells; assay type: cell-based, human
Method: as §1
Chang cells, the normal human hepatocytes, were treated with TGFβ, followed by immunoblotting. As a result, it was confirmed that TM4SF5 expression was induced. From the comparison of cellular morphology, it was also confirmed that cell-cell contact became weak, compared with the control treated with vehicle (PBS) only without TGFβ, and EMT was induced, and the expression of α-SMA, the mesenchymal cell marker, was increased (FIG. 4).
In addition, Chang cells, the normal human hepatocytes, were treated with TGFβ at different concentrations of 0, 2.5 and 5 ng/ml, followed by immunoblotting. […] EGFR signal transduction system was also activated, confirmed by using antibodies against phospho-Y^1173EGFR (Santa Cruz Biotechnology, Santa Cruz, Calif.), EGFR (Santa Cruz Biotechnology, Santa Cruz, Calif.), phospho-Erk, phospho-Smad2, phospho-Smad3 (Cell Signaling Technology, Danvers, Mass.), and α-tubulin (Sigma-Aldrich) (FIG. 5).

Chang cells [2] = test: TM4SF5 expression and EGFR signal transduction system over treatment times of TGFβ and EGF in Chang cells; assay type: cell-based, human; conditions: TGFβ (2.5 ng/ml) and EGF (50 ng/ml), 0, 0.5, 1, 2, and 24 hours
Method: Chang cells were cultured in DMEM supplemented with 10% FBS, which were then washed with serum-free DMEM. The cells were maintained as serum-free status for 4 hours. […] Then, TM4SF5 expression and EGFR signal transduction system were investigated.

TM4SF5 expression [3] = test: TGFβ mediated TM4SF5 expression in Chang cells infected with Smad adenoviruses with AG1478; assay type: cell-based, human; conditions: group treated with Smad2 and Smad4 adenoviruses, AG1478 1 hour before TGFβ, 24 hours
Method: In addition, Chang cells were infected with Smad2, Smad3, and Smad4 adenoviruses for 24 hours, followed by serum starvation for 24 hours. After serum starvation, the cells were treated with AG1478 1 hour before the treatment of TGFβ in order to inhibit EGFR signaling. After the treatment of TGFβ, the cells were further cultured for 24 more hours. Then, the protein in the cell extract was quantified, followed by Western blotting. As a result, it was confirmed that TGFβ mediated TM4SF5 expression was reduced by AG1478 in the group treated with Smad2 and Smad4 adenoviruses.

TM4SF5 expression [4] = test: TGFβ mediated TM4SF5 expression in AML12 cells with EGFR inhibitor, Western blotting and optical microscope; assay type: cell-based, mouse
Method: Particularly, AML12 cells were cultured in DMEM supplemented with 10% FBS, which were then washed with serum-free DMEM. The cells were maintained as serum-free status for 4 hours. After serum starvation, the cells were treated with DMSO (control vehicle) and AG1478 (100 nM) 30 minutes before the treatment of TGFβ (2.5 ng/ml) in order to inhibit EGFR signaling. After the treatment of TGFβ (R&D systems, Minneapolis, Minn., USA), the cells were further cultured for 24 more hours.
Western blotting was performed with antibodies against phospho-Y^1173EGFR (Santa Cruz Biotechnology, Santa Cruz, Calif.), phospho-Y^992EGFR (Cell Signaling Technology, Danvers, Mass.), phospho-Erk (Cell Signaling Technology, Danvers, Mass.), phospho-Smad2 (Cell Signaling Technology, Danvers, Mass.), phospho-Smad3 (Cell Signaling Technology, Danvers, Mass.), TM4SF5, and α-tubulin (Sigma-Aldrich) to investigate the expressions of TM4SF5 and EGFR signal transduction system related factors.
(2) AML12 cells were cultured in DMEM supplemented with 10% FBS, which were then washed with serum-free DMEM. The cells were maintained as serum-free status for 4 hours. After serum starvation, the cells were treated with various inhibitors such as PD98059 (MEK inhibitor, LC Laboratories, Woburn, Mass.), LY294002 (PI3K inhibitor), PP2, PP3 (src inhibitor, Tocris Cookson, Avonmouth, UK), Rapamycin (mTOR inhibitor), GF109203 (PKC inhibitor, Calbiochem, San Diego, Calif.), AG1478 (EGFR inhibitor, LC Laboratories, Woburn, Mass.), U0126 (ERK1/2 inhibitor, LC Laboratories, Woburn, Mass.), SP600125 (Jnk inhibitor), and Y-27632 (ROCK inhibitor, Calbiochem, San Diego, Calif.) 30 minutes before the treatment of TGFβ (2.5 ng/ml). Then, TM4SF5 expression was examined. As a result, TM4SF5 expression was reduced by AG1478 under the near death condition (the condition in which phospho-Y^397 FAK level was high) (FIG. 8).

TM4SF5 expression [5] = test: TM4SF5 expression mediated by conditioned medium of LX2 cells in AML12 cells with AG1478; assay type: cell-based, mouse; conditions: AG1478 100 nM, 24 hours
Method: Particularly, one hour before the treatment of conditioned medium of LX2 cells to AML12 cells, AG1478 (100 nM) was added to the medium to inhibit EGFR kinase activity, leading to the suppression of EGFR signaling, which was then treated to AML12 cells, followed by further culture for 24 hours.

[6] = Chang cells, 0, 2.5 and 5 ng/ml

Molecule | transcriptional activity of TM4SF5 promoter region (luciferase) (human TM4SF5 promoter) | EMT (epithelial-mesenchymal transition) (AML12 cells; TGFβ 2.5 ng/ml, 24 hours) | TM4SF5 expression (AML12 cells; TGFβ 2.5 ng/ml, 24 hours) | E-cadherin expression (AML12 cells; immunoblotting) | vimentin expression (AML12 cells; immunoblotting) | α-SMA expression (Chang cells [1]; Chang cells) | EGFR signal transduction system (Chang cells [1]; [6]) | TM4SF5 protein expression at different TGFβ concentrations (Chang cells [1]; [6]) | cell-cell contact (Chang cells [1]; Chang cells, compared with vehicle (PBS)) | TM4SF5 expression (Chang cells [1]; Chang cells, immunoblotting) | EGFR signal transduction system activation and TM4SF5 expression over time (Chang cells [2]) | TGFβ mediated TM4SF5 expression (TM4SF5 expression [3]) | cell-cell contact (TGFβ mediated cell dispersion, cell morphology change) (TM4SF5 expression [4]; AML12 cells, AG1478 100 nM, TGFβ 2.5 ng/ml, optical microscope) | TGFβ mediated TM4SF5 expression (TM4SF5 expression [4]; AML12 cells, inhibitor 30 minutes before TGFβ (2.5 ng/ml), AG1478 100 nM, 24 hours) | TGFβ signaling Smad2 activation (TM4SF5 expression [4]; suppression of EGFR activation by AG1478) | TM4SF5 expression mediated by conditioned medium of LX2 cells (TM4SF5 expression [5])
TGFβ: transforming growth factor β, a multi-functional cytokine (R&D systems) | increased | induced | increased | reduced | increased | increased | activated | increased TGFβ dose-dependently | became weak | induced | induced continuously |  |  |  |  | 
COc1cc2ncnc(Nc3cccc(Cl)c3)c2cc1OC [AG1478] |  |  |  |  |  |  |  |  |  |  |  | reduced | maintained; also recorded: suppressed | decreased; also recorded: reduced; also recorded: suppressed | did not affect | reduced; also recorded: not increased any more
